# Measurements: ChEMBL document CHEMBL3228036, “A new chemical series active against African trypanosomes: benzyltriphenylphosphonium salts” (J Med Chem, 1979)
# The source made the active and inactive calls. No cut-off for these calls is given here.
# Tests used:
# [1] = system: Trypanosoma brucei rhodesiense; assay: […] activity against Trypanosoma brucei rhodesiense Wellcome CT infected in ICR/HA mouse assessed as curated mouse at 106 mg/kg, po treated within 2 hrs of parasite infection measured up to 30 days; type: functional, organism-based; set-up: dose 106 mg/kg
# [2] = system: Mus musculus; assay: Toxicity in Trypanosoma rhodesiense Wellcome CT infected ICR/HA mouse assessed as mortality at 106 mg/kg, sc treated within 2 hrs of parasite infection measured up to 30 days; type: organism-based; set-up: dose 106 mg/kg, route subcutaneous; details: in vivo
# [3] = system: Trypanosoma brucei rhodesiense; assay: […] activity against Trypanosoma brucei rhodesiense Wellcome CT infected in ICR/HA mouse assessed as curated mouse at 13.3 mg/kg, po treated within 2 hrs of parasite infection measured up to 30 days; type: functional, organism-based; set-up: dose 13.3 mg/kg
# [4] = system: Trypanosoma brucei rhodesiense; assay: […] activity against Trypanosoma brucei rhodesiense Wellcome CT infected in ICR/HA mouse assessed as curated mouse at 26.5 mg/kg, po treated within 2 hrs of parasite infection measured up to 30 days; type: functional, organism-based; set-up: dose 26.5 mg/kg
# [5] = system: Mus musculus; assay: Toxicity in Trypanosoma brucei rhodesiense Wellcome CT infected ICR/HA mouse assessed as mortality at 424 mg/kg, sc treated within 2 hrs of parasite infection measured up to 30 days; type: organism-based; set-up: dose 424 mg/kg, route subcutaneous; details: in vivo
# [6] = system: Mus musculus; assay: Toxicity in Trypanosoma brucei rhodesiense Wellcome CT infected ICR/HA mouse assessed as mortality at 212 mg/kg, po treated within 2 hrs of parasite infection measured up to 30 days; type: organism-based; set-up: dose 212 mg/kg, route oral; details: in vivo
# [7] = system: Trypanosoma brucei rhodesiense; assay: […] activity against Trypanosoma brucei rhodesiense Wellcome CT infected in ICR/HA mouse assessed as curated mouse at 212 mg/kg, po treated within 2 hrs of parasite infection measured up to 30 days; type: functional, organism-based; set-up: dose 212 mg/kg
# [8] = system: Trypanosoma brucei rhodesiense; assay: […] activity against Trypanosoma brucei rhodesiense Wellcome CT infected in ICR/HA mouse assessed as curated mouse at 424 mg/kg, po treated within 2 hrs of parasite infection measured up to 30 days; type: functional, organism-based; set-up: dose 424 mg/kg
# [9] = system: Mus musculus; assay: Toxicity in Trypanosoma brucei rhodesiense Wellcome CT infected ICR/HA mouse assessed as mortality at 424 mg/kg, po treated within 2 hrs of parasite infection measured up to 30 days; type: organism-based; set-up: dose 424 mg/kg, route oral; details: in vivo
# [10] = system: Trypanosoma brucei rhodesiense; assay: […] activity against Trypanosoma brucei rhodesiense Wellcome CT infected in ICR/HA mouse assessed as curated mouse at 26.5 mg/kg, sc treated within 2 hrs of parasite infection measured up to 30 days; type: functional
# [11] = system: Trypanosoma brucei rhodesiense; assay: […] activity against Trypanosoma brucei rhodesiense Wellcome CT infected in ICR/HA mouse assessed as curated mouse at 424 mg/kg, sc treated within 2 hrs of parasite infection measured up to 30 days; type: functional, organism-based; set-up: dose 424 mg/kg
# [12] = system: Trypanosoma brucei rhodesiense; assay: […] activity against Trypanosoma brucei rhodesiense Wellcome CT infected in ICR/HA mouse assessed as curated mouse at 53 mg/kg, po treated within 2 hrs of parasite infection measured up to 30 days; type: functional, organism-based; set-up: dose 53 mg/kg
# [13] = system: Trypanosoma brucei rhodesiense; assay: […] activity against Trypanosoma brucei rhodesiense Wellcome CT infected in ICR/HA mouse assessed as curated mouse at 13.3 mg/kg, sc treated within 2 hrs of parasite infection measured up to 30 days; type: functional, organism-based; set-up: dose 13.3 mg/kg
compound,measurement,setting,value
FC(F)(F)c1ccc(C[P+](c2ccccc2)(c2ccccc2)c2ccccc2)cc1.[Cl-],Activity,[1],inactive
same,Activity,[2],Toxic
same,Activity,[3],inactive
same,Activity,[4],inactive
same,Activity,[5],Toxic
same,Activity,[6],Toxic
same,Activity,[7],inactive
same,Activity,[8],inactive
same,Activity,[9],Toxic
same,Activity,[10],inactive
same,Activity,[11],inactive
same,Activity,[12],inactive
same,Activity,[13],inactive
